Experimental data from PubChem BioAssay (NCI).
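96-well plates; 48 h exposure; 5 concentrations. Endpoints by linear interpolation between flanking doses. Not reached: highest tested concentration assigned. The concentration for 50% growth inhibition is given as GI50. TGI: concentration producing complete growth inhibition.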

Legend:
Assay in all cases: NCI anticancer screen, dose series, 48 h
[1] = system: OVCAR-3 ovarian
[2] = system: SK-MEL-2 melanoma
[3] = system: HOP-92 NSCLC
[4] = system: A498 renal
[5] = system: K-562 leukemia
[6] = system: UACC-62 melanoma
[7] = system: PC-3 prostate
[8] = system: MDA-MB-435
[9] = system: MOLT-4 leukemia
[10] = system: DU-145 prostate
[11] = system: SR leukemia
[12] = system: HOP-62 NSCLC
[13] = system: M14 melanoma
[14] = system: OVCAR-5 ovarian
[15] = system: MALME-3M melanoma
[16] = system: NCI/ADR-RES ovarian
[17] = system: TK-10 renal
[18] = system: MCF7 breast
[19] = system: SNB-19 CNS
[20] = system: 786-0 renal
[21] = system: HL-60(TB) leukemia
[22] = system: HCT-116 colon
[23] = system: EKVX NSCLC
[24] = system: SW-620 colon
[25] = system: CCRF-CEM leukemia
[26] = system: SF-539 CNS
[27] = system: SK-MEL-5 melanoma
[28] = system: UO-31 renal
[29] = system: HCC-2998 colon
[30] = system: RPMI-8226 leukemia
[31] = system: COLO 205 colon
[32] = system: UACC-257 melanoma
[33] = system: CAKI-1 renal
[34] = system: T-47D breast
[35] = system: KM12 colon
[36] = system: ACHN renal
[37] = system: NCI-H460 lung
[38] = system: SF-268 CNS
[39] = system: NCI-H226 lung
[40] = system: LOX IMVI melanoma
[41] = system: SK-MEL-28 melanoma
[42] = system: SK-OV-3 ovarian
[43] = system: OVCAR-4 ovarian
[44] = system: BT-549 breast
[45] = system: HS 578T breast
[46] = system: HT29 colon
[47] = system: RXF 393 renal
[48] = system: U251 CNS
[49] = system: MDA-MB-231 breast
[50] = system: SF-295 CNS
[51] = system: A549 NSCLC
[52] = system: SNB-75 CNS
[53] = system: HCT-15 colon
[54] = system: IGROV1 ovarian
[55] = system: NCI-H522 lung
[56] = system: OVCAR-8 ovarian
[57] = system: SN12C renal
[58] = system: NCI-H23 lung

`O=C(NO)c1ccc(Cn2c(=O)n(-c3ccccc3)c(=O)c3ccccc32)cc1` was tested, and the GI50 [1] was 1580 nM, the TGI [1] was 7870 nM and the GI50 [2] was 1220 nM. It also gave a TGI [2] of 3340 nM, a GI50 [3] of 1600 nM and a TGI [3] of 4180 nM. The GI50 [4] was 418 nM, the TGI [4] was 2090 nM and the GI50 [5] was 942 nM. It also gave a TGI [5] of over 100000 nM, a GI50 [6] of 482 nM and a TGI [6] of 2160 nM. The GI50 [7] was 1720 nM, the TGI [7] was 4530 nM and the GI50 [8] was 531 nM. For the same molecule, the TGI [8] was 1770 nM, the GI50 [9] was 848 nM and the TGI [9] was over 100000 nM. It also gave a GI50 [10] of 773 nM, a TGI [10] of over 100000 nM and a GI50 [11] of 1680 nM. For the same molecule, the TGI [11] was over 100000 nM, the GI50 [12] was 1320 nM and the TGI [12] was 3240 nM. It also gave a GI50 [13] of 539 nM, a TGI [13] of 2090 nM and a GI50 [14] of 1080 nM. For the same molecule, the TGI [14] was 5280 nM, the GI50 [15] was 473 nM and the TGI [15] was 2340 nM. The GI50 [16] was 2670 nM, the TGI [16] was 39500 nM and the GI50 [17] was 1020 nM. It also gave a TGI [17] of 8080 nM, a GI50 [18] of 1730 nM and a TGI [18] of 60200 nM. For the same molecule, the GI50 [19] was 1850 nM, the TGI [19] was over 100000 nM and the GI50 [20] was 1480 nM. The TGI [20] was 3200 nM, the GI50 [21] was 2660 nM and the TGI [21] was over 100000 nM. For the same molecule, the GI50 [22] was 324 nM, the TGI [22] was 898 nM and the GI50 [23] was 1110 nM. The TGI [23] was 2690 nM, the GI50 [24] was 667 nM and the TGI [24] was 3030 nM. It also gave a GI50 [25] of 457 nM, a TGI [25] of over 100000 nM and a GI50 [26] of 693 nM. The TGI [26] was 2860 nM, the GI50 [27] was 1060 nM and the TGI [27] was 2300 nM. For the same molecule, the GI50 [28] was 1770 nM, the TGI [28] was 4630 nM and the GI50 [29] was 1310 nM. It also gave a TGI [29] of 2650 nM, a GI50 [30] of 689 nM and a TGI [30] of 93500 nM. The GI50 [31] was 356 nM, the TGI [31] was 1390 nM and the GI50 [32] was 811 nM. The TGI [32] was 2780 nM, the GI50 [33] was 2810 nM and the TGI [33] was 12300 nM. It also gave a GI50 [34] of 436 nM, a TGI [34] of 2950 nM and a GI50 [35] of 1110 nM. For the same molecule, the TGI [35] was 2730 nM, the GI50 [36] was 1670 nM and the TGI [36] was 6370 nM. The GI50 [37] was 1440 nM, the TGI [37] was 9190 nM and the GI50 [38] was 1380 nM. It also gave a TGI [38] of 4520 nM, a GI50 [39] of 1320 nM and a TGI [39] of 2910 nM. For the same molecule, the GI50 [40] was 1260 nM, the TGI [40] was 2620 nM and the GI50 [41] was 519 nM. The TGI [41] was 2930 nM, the GI50 [42] was 1300 nM and the TGI [42] was 3170 nM. For the same molecule, the GI50 [43] was 1560 nM, the TGI [43] was 18700 nM and the GI50 [44] was 1550 nM. For the same molecule, the TGI [44] was 3920 nM, the GI50 [45] was 1600 nM and the TGI [45] was 9430 nM. For the same molecule, the GI50 [46] was 1830 nM, the TGI [46] was 47900 nM and the GI50 [47] was 1110 nM. For the same molecule, the TGI [47] was 2660 nM, the GI50 [48] was 860 nM and the TGI [48] was 2300 nM. It also gave a GI50 [49] of 1630 nM, a TGI [49] of 5160 nM and a GI50 [50] of 1380 nM. The TGI [50] was 2980 nM, the GI50 [51] was 2330 nM and the TGI [51] was 13600 nM. The GI50 [52] was 1880 nM and the TGI [52] was 5350 nM.
For `COc1ccc2c(c1)[nH]c(=O)c1c3cc(OC)c(OC)cc3cn21`, the GI50 [1] was under 10 nM, the TGI [1] was under 10 nM and the GI50 [2] was 30.3 nM. For the same molecule, the TGI [2] was 20800 nM, the GI50 [3] was 27.2 nM and the TGI [3] was 17400 nM. The GI50 [4] was under 10 nM, the TGI [4] was 72 nM and the GI50 [6] was under 10 nM. The TGI [6] was 21000 nM, the GI50 [7] was under 10 nM and the TGI [7] was 1600 nM. For the same molecule, the GI50 [8] was under 10 nM, the TGI [8] was under 10 nM and the GI50 [9] was under 15.9 nM. It also gave a TGI [9] of 1160 nM, a GI50 [10] of under 10 nM and a TGI [10] of 59.4 nM. It also gave a GI50 [11] of under 10 nM, a TGI [11] of 96.1 nM and a GI50 [12] of 93.6 nM. It also gave a TGI [12] of 21000 nM, a GI50 [13] of under 10 nM and a TGI [13] of 11800 nM. The GI50 [53] was under 10 nM, the TGI [53] was 1190 nM and the GI50 [14] was 41.1 nM. It also gave a TGI [14] of 18100 nM, a GI50 [15] of 16600 nM and a TGI [15] of 44100 nM. The GI50 [16] was under 10 nM, the TGI [16] was under 13.3 nM and the GI50 [17] was 386 nM. It also gave a TGI [17] of 17300 nM, a GI50 [18] of 32.3 nM and a TGI [18] of 1280 nM. For the same molecule, the GI50 [19] was 16 nM, the TGI [19] was 22300 nM and the GI50 [54] was under 17.8 nM. For the same molecule, the TGI [54] was 233 nM, the GI50 [20] was 38.6 nM and the TGI [20] was 15300 nM. It also gave a GI50 [55] of under 10 nM, a TGI [55] of 12.5 nM and a GI50 [21] of under 10 nM. It also gave a TGI [21] of under 10.4 nM, a GI50 [22] of under 10 nM and a TGI [22] of 1190 nM. The GI50 [23] was 31.2 nM, the TGI [23] was 18900 nM and the GI50 [24] was under 10 nM. For the same molecule, the TGI [24] was 1520 nM, the GI50 [25] was under 11.4 nM and the TGI [25] was 1120 nM. It also gave a GI50 [26] of 17.5 nM, a TGI [26] of 61.8 nM and a GI50 [27] of under 10 nM. The TGI [27] was 11200 nM, the GI50 [56] was 19.3 nM and the TGI [56] was 14900 nM. For the same molecule, the GI50 [28] was under 10 nM, the TGI [28] was 17400 nM and the GI50 [29] was under 10 nM. The TGI [29] was 76.8 nM, the GI50 [57] was 12.4 nM and the TGI [57] was 15200 nM. It also gave a GI50 [30] of under 13.4 nM, a GI50 [58] of under 17.3 nM and a TGI [58] of 16400 nM. It also gave a GI50 [31] of under 10 nM, a TGI [31] of 63.5 nM and a GI50 [32] of 14700 nM. For the same molecule, the TGI [32] was 29500 nM, the GI50 [33] was under 10 nM and the TGI [33] was under 10 nM. For the same molecule, the GI50 [34] was 15400 nM, the TGI [34] was 35600 nM and the GI50 [35] was under 10 nM. It also gave a TGI [35] of 292 nM, a GI50 [36] of under 10 nM and a TGI [36] of 16100 nM. The GI50 [37] was under 10 nM, the TGI [37] was 1040 nM and the GI50 [38] was under 10 nM. For the same molecule, the TGI [38] was 1450 nM, the GI50 [39] was 70.1 nM and the TGI [39] was 24400 nM. For the same molecule, the GI50 [40] was under 10 nM, the TGI [40] was 1690 nM and the GI50 [41] was under 10 nM. For the same molecule, the TGI [41] was 18200 nM, the GI50 [42] was under 11.1 nM and the TGI [42] was 17500 nM. It also gave a GI50 [43] of 38.4 nM, a TGI [43] of 4720 nM and a GI50 [44] of under 24 nM. It also gave a TGI [44] of 861 nM, a GI50 [45] of under 10 nM and a TGI [45] of under 23.1 nM. It also gave a GI50 [46] of under 10 nM, a GI50 [47] of under 10 nM and a TGI [47] of 1890 nM. It also gave a GI50 [48] of under 10 nM, a TGI [48] of 1350 nM and a GI50 [49] of 21.9 nM. It also gave a TGI [49] of 1060 nM, a GI50 [50] of under 10 nM and a TGI [50] of 409 nM. The GI50 [51] was under 10 nM, the TGI [51] was 1410 nM and the GI50 [52] was under 10 nM. The TGI [52] was 19700 nM.
